The values that follow come from paper PMC4503722, “Novel Phenotypic Outcomes Identified for a Public Collection of Approved Drugs from a Publicly Accessible Panel of Assays” (PLoS ONE, 2015).

The term pIC50 denotes the negative decadic logarithm of the IC50, by convention in mol/L.

The test system of one assay is DLD-1. Briefly: cells. The assay is classed as cell-based.
For a further assay, the system named is RKO. Briefly: cells. The assay is classed as cell-based.
In the next assay the test system is HCT116. Nature of the assay: cells. The assay is classed as cell-based.
Another assay has as its system SW480. Briefly: cells. The assay is classed as cell-based.
The next assay concerns Colo320. Briefly: cells. The assay is classed as cell-based.
Assay [1] concerns endothelial tube formation in co-cultures of ECFCs and ADSCs treated with VEGF. Nature of the assay: cells. Type of assay: cell-based, human.
Assay [2] concerns ECFC/ADSC co-culture cell nuclei number.
Assay [3] relates to HCT116 cells treated with a GSK3β inhibitor. Briefly: cells. Type of assay: cell-based.
A further assay concerns HT-29. Briefly: cells. Type of assay: cell-based.
Another assay concerns SNU-C1. Nature of the assay: cells. The assay is classed as cell-based.
Where [4] appears, read: assay number 26, GSK3b inhibitor pretreated.

pIC50: −log10 of the molar value. Like-named read-outs stand apart in the source and are kept apart here.

Take `CC(CC=O)CCCC(C)(C)O` (stereo not drawn) [NCGC00181031-03]: the “Basal_Viability ATP DLD-1 IC50/EC50” value in the assay on DLD-1 (assay number 23, basal) is recorded as greater than 20 µM. The “Basal_Viability ATP RKO IC50/EC50” value in the assay with RKO (assay number 29, basal) is listed as greater than 20 µM. Besides, the “Basal_Viability ATP HCT116 IC50/EC50” value in the assay on HCT116 (assay number 25, basal) was greater than 20 µM. Further, the “Basal_Viability ATP SW480 IC50/EC50” value in the assay with SW480 (assay number 24, basal) is given as greater than 20 µM. In the assay with Colo320 (assay number 27, basal), the “Basal_Viability ATP Colo 320 IC50/EC50” value was greater than 20 µM. Further, the “VEGF_ADSC\ECFC Angio CD31 TubeArea IC50/EC50” value in [1] is given as greater than 10 µM. Moreover, the “VEGF_ADSC\ECFC Angio Hoechst NucArea IC50/EC50” value in assay [2] is on record as greater than 10 µM. Also, in assay [3] (setting [4]), the “GSK3b inh pretreated_Viability ATP HCT116 IC50/EC50” value is recorded as greater than 20 µM. The “Basal_Viability ATP HT-29 IC50/EC50” value in the assay on HT-29 (assay number 28, basal) is on record as greater than 20 µM. Moreover, the “Basal_Viability ATP SNU-C1 IC50/EC50” value in the assay on SNU-C1 (assay number 30, basal) is greater than 20 µM.

Turning to `CC(C)[C@@H]1CC[C@@H](C)C[C@H]1OC(=O)c1ccccc1O` [NCGC00181042-02], the “Basal_Viability ATP DLD-1 IC50/EC50” value in the assay on DLD-1 (assay number 23, concentration response) is on record as greater than 20 µM. Besides, the “Basal_Viability ATP RKO IC50/EC50” value in the assay on RKO (assay number 29, concentration response) is given as greater than 20 µM. Further, the “Basal_Viability ATP HCT116 IC50/EC50” value with HCT116 (assay number 25, basal, concentration response) is given as greater than 20 µM. Further, in the assay on SW480 (assay number 24, concentration response), the “Basal_Viability ATP SW480 IC50/EC50” value is greater than 20 µM. In addition, the “Basal_Viability ATP Colo 320 IC50/EC50” value in the assay on Colo320 (assay number 27, concentration response) was greater than 20 µM. Moreover, the “VEGF_ADSC\ECFC Angio CD31 TubeArea IC50/EC50” value in [1] is reported as greater than 10 µM. In addition, in assay [2], the “VEGF_ADSC\ECFC Angio Hoechst NucArea IC50/EC50” value was greater than 10 µM. Further, the “GSK3b inh pretreated_Viability ATP HCT116 IC50/EC50” value in assay [3] (assay number 26, GSK3b inhibitor pretreated, concentration response) is greater than 20 µM. Besides, the “Basal_Viability ATP HT-29 IC50/EC50” value with HT-29 (assay number 28, concentration response) is greater than 20 µM. Further, the “Basal_Viability ATP SNU-C1 IC50/EC50” value with SNU-C1 (assay number 30, concentration response) is given as greater than 20 µM.

`CC(C)=CCC/C(C)=C/CC/C(C)=C/CC/C=C(\C)CC/C=C(\C)CCC=C(C)C` [NCGC00181323-02]: the pIC50 is less than 4.70 in the assay with DLD-1 (assay number 23, basal, read-out: Basal_Viability ATP DLD-1 summarized IC50); less than 4.70 in the assay with RKO (assay number 29, basal, read-out: Basal_Viability ATP RKO summarized IC50); less than 4.70 in the assay with HCT116 (assay number 25, basal, read-out: Basal_Viability ATP HCT116 summarized IC50); less than 4.70 in the assay with SW480 (assay number 24, basal, read-out: Basal_Viability ATP SW480 summarized IC50); less than 4.70 in the assay on Colo320 (assay number 27, basal, read-out: Basal_Viability ATP Colo 320 summarized IC50); less than 5.00 in assay [1] (read-out: VEGF_ADSC\ECFC Angio CD31 TubeArea summarized IC50). Further, the pIC50 in assay [2] (read-out: VEGF_ADSC\ECFC Angio Hoechst NucArea summarized IC50) was less than 5.00; in assay [3] (assay number 26, GSK3b inhibitor pretreated, read-out: GSK3b inh pretreated_Viability ATP HCT116 summarized IC50), less than 4.70; in the assay with HT-29 (assay number 28, basal, read-out: Basal_Viability ATP HT-29 summarized IC50) it was less than 4.70; with SNU-C1 (assay number 30, basal, read-out: Basal_Viability ATP SNU-C1 summarized IC50) it was less than 4.70.

`CCOC(=O)[C@H](CCc1ccccc1)N[C@@H](C)C(=O)N1C(=O)N(C)C[C@H]1C(=O)O.Cl` [NCGC00181342-02]: the “Basal_Viability ATP DLD-1 IC50/EC50” value with DLD-1 (assay number 23, basal) is greater than 20 µM. Besides, the “Basal_Viability ATP RKO IC50/EC50” value with RKO (assay number 29, basal) is given as greater than 20 µM. The “Basal_Viability ATP HCT116 IC50/EC50” value in the assay with HCT116 (assay number 25, basal) is greater than 20 µM. Moreover, the “Basal_Viability ATP SW480 IC50/EC50” value in the assay on SW480 (assay number 24, basal) is on record as greater than 20 µM. For the same molecule, the “Basal_Viability ATP Colo 320 IC50/EC50” value in the assay with Colo320 (assay number 27, basal) is listed as greater than 20 µM. Further, the “VEGF_ADSC\ECFC Angio CD31 TubeArea IC50/EC50” value in assay [1] is on record as greater than 10 µM. In addition, the “VEGF_ADSC\ECFC Angio Hoechst NucArea IC50/EC50” value in assay [2] is reported as greater than 10 µM. In addition, the “GSK3b inh pretreated_Viability ATP HCT116 IC50/EC50” value in assay [3] (setting [4]) was greater than 20 µM. In the assay with HT-29 (assay number 28, basal), the “Basal_Viability ATP HT-29 IC50/EC50” value is listed as greater than 20 µM. In the assay with SNU-C1 (assay number 30, basal), the “Basal_Viability ATP SNU-C1 IC50/EC50” value is greater than 20 µM.

`Cc1cc2nc3ccc(=[N+](C)C)cc-3sc2cc1N.[Cl-]` [NCGC00181775-02]: the “Basal_Viability ATP DLD-1 IC50/EC50” value with DLD-1 was 9.38 µM. In addition, the “Basal_Viability ATP RKO IC50/EC50” value with RKO was 0.9955 µM. The “Basal_Viability ATP HCT116 IC50/EC50” value with HCT116 stood at 2.782 µM. The “Basal_Viability ATP SW480 IC50/EC50” value in the assay on SW480 is recorded as 1.397 µM. Further, the “Basal_Viability ATP Colo 320 IC50/EC50” value in the assay on Colo320 is 0.9874 µM. Besides, in [1], the “VEGF_ADSC\ECFC Angio CD31 TubeArea IC50/EC50” value worked out at 2.45 µM. In addition, the “VEGF_ADSC\ECFC Angio Hoechst NucArea IC50/EC50” value in assay [2] is recorded as 8.146 µM. Further, the “GSK3b inh pretreated_Viability ATP HCT116 IC50/EC50” value in [3] turned out to be 1.693 µM. Also, the “Basal_Viability ATP HT-29 IC50/EC50” value in the assay with HT-29 is listed as 5.063 µM. Also, in the assay on SNU-C1, the “Basal_Viability ATP SNU-C1 IC50/EC50” value is reported as 5.5567 µM.

With `O=C1NCCN1CCN1CCC(c2cn(-c3ccc(F)cc3)c3ccc(Cl)cc23)CC1` [NCGC00181782-03], the “IC50/EC50, Basal_Viability ATP DLD-1 (assay number 23)” value in the assay on DLD-1 (basal) was 5.6233 µM. For the same molecule, the “IC50/EC50, Basal_Viability ATP RKO (assay number 29)” value with RKO (basal) was 2.6022 µM. In addition, the “IC50/EC50, Basal_Viability ATP HCT116 (assay number 25)” value in the assay with HCT116 (basal) stood at 2.1598 µM. For the same molecule, in the assay on SW480 (basal), the “IC50/EC50, Basal_Viability ATP SW480 (assay number 24)” value was determined as 2.8086 µM. In the assay on Colo320 (basal), the “IC50/EC50, Basal_Viability ATP Colo 320 (assay number 27)” value was 3.6991 µM. In assay [1], the “IC50/EC50, VEGF_ADSC\ECFC Angio CD31 TubeArea (assay number 2)” value is greater than 10 µM. In addition, the “IC50/EC50, VEGF_ADSC\ECFC Angio Hoechst NucArea (assay number 3)” value in [2] is reported as greater than 10 µM. Moreover, the “IC50/EC50, GSK3b inh pretreated_Viability ATP HCT116 (assay number 26)” value in assay [3] (GSK3b inh pretreated) was determined as 3.5177 µM. In addition, in the assay with HT-29 (basal), the “IC50/EC50, Basal_Viability ATP HT-29 (assay number 28)” value was determined as 2.8613 µM. Further, the “IC50/EC50, Basal_Viability ATP SNU-C1 (assay number 30)” value with SNU-C1 (basal) is on record as 1.4252 µM.
